Assays:
[1] = test system: non-transformed GS3 embryos; assay: Glyphosate kill curve; type: cell-based, maize; conditions: about 40 days culture
Procedure: (§1) A glyphosate kill curve was established by testing non-transformed embryos response on media with different levels of glyphosate. GS3 embryos were isolated from an immature ear and placed onto media containing glyphosate at 0.0, 0.5, 1.0, and 2.0 mM. After about 40 days culture, the response of the embryos were observed and recorded. Similarly, infected GS3 embryos with the GAT construct were placed onto media containing glyphosate at 0.0, 0.5, 1.0, and 2.0 mM. After about 40 days culture, the response of the infected embryos were observed and recorded (FIG. 7).

[2] = test system: Hairy Fleabane (Conyza bonariensis), glyphosate sensitive biotype; assay: Control of hairy fleabane by glyphosate, metsulfuron-methyl and two additives; type: in vivo; conditions: glyphosate on its own
Procedure: This example included the same treatments as used in Example 11, except the treatments were carried out on a glyphosate sensitive biotype of Kleinskraalhans (Conyza bonariensis).

[3] = test system: non-glyphosate resistant ryegrass; assay: Control of ryegrass by glyphosate, metsulfuron-methyl and two additives; type: in vivo; conditions: 0.5 L ha-1 glyphosate (SCAT) alone
Procedure: The example was conducted on non-glyphosate resistant ryegrass. As provided in Table 23, all treatments that included glyphosate [180 g a.i. L ha^−1 (0.5 L glyphosate (SCAT®))] plus metsulfuron-methyl (BRUSH-OFFS®) (5 and 10 g ha^−1) gave 100% control of the ryegrass.

[4] = test system: Glyphosate, Paraquat, and ACCase-Inhibitor Resistant Ryegrass; assay: Control of resistant ryegrass by glyphosate and representative SU's; type: in vivo; conditions: glyphosate (SCAT) only or plus an SU
From the text: In this example, four different SU's were applied together with glyphosate (SCAT®) on the resistant ryegrass. The results as to the best SU partner for glyphosate were inconclusive, but the average benefit of applying an SU with glyphosate on herbicide resistant ryegrass was 39% (e.g., 34% control with glyphosate (SCAT®) only and 57-83% control with glyphosate (SCAT®) plus metsulfuron-methyl (BRUSH-OFF®), chlorsulfuron (GLEAN®), or triasulfuron (LOGRAN(®)).

[5] = test system: GAT-HRA transgenic cotton plants; assay: Greenhouse over-the-top herbicide spray of cotton; type: in vivo, Gossypium hirsutum; conditions: glyphosate 1.5 lb acid equivalent per acre; 14 days after application
From the text: (§2) Cotton (Gossypium hirsutum) Coker 312 was transformed with a GAT polynucleotide (gat 4621) together with an Hra polynucleotide (SEQ ID NO:86) both operably linked to strong, constitutive plant viral promoters. The promoter linked to gat4621 contains a duplicated portion of the Strawberry Vein Banding Virus transcript promoter (Wang et al. Virus Genes 20: 11-17, 2000; Genbank X97304). The Hra gene was driven by a duplicated portion of the Mirabilis Mosaic Caulimovirus full-length transcript promoter (U.S. Pat. No. 6,420,547; Dey and Maiti, Transgenics 3:61-70, 1999). The transformation procedure used Agrobacterium tumefaciens containing an expression cassette with the genes to be transferred and cotyledon explant derived callus with some capacity to undergo embryogenesis. The callus was exposed to Agrobacterium for 48-72 hours. The callus was then exposed to selection for transformed cells on 50-200 μg/l chlorosulfuron and/or 50-450 μM glyphosate in solid medium. Glyphosate can also be used in a concentration range of about 5 to about 450 μM. Selection was applied until somatic embryos formed, and selection was again applied at the embryo germination step, and optionally during rooting of plantlets. Over 450 GAT-HRA transformation events were produced using selection with both chlorsulfuron and glyphosate.
(§3) Transformed cotton plants were rooted and then transferred to soil for further growth. Plants were then subjected to herbicide spray treatments in a greenhouse. […] Untransformed Coker 312 control plants were dead 2 weeks after glyphosate application. […] Plants transformed with both GAT and HRA were further subjected to an “over the top” application of the sulfonylurea herbicide rimsulfuron at a rate of 16 g active ingredient/hectare. […] In further experiments 32 g ai/ha rimsulfuron were applied to the cotton.

[6] = test system: Untransformed Coker 312 cotton plants; assay: Greenhouse over-the-top herbicide spray of cotton; type: in vivo, Gossypium hirsutum
From the text: as §2, §3

[7] = test system: Parent elite stiff stalk inbred corn; assay: Postemergence herbicide application to potted corn (fresh weight, visual injury); type: in vivo; conditions: 3472 g ae/ha
[8] = test system: infected GS3 embryos with the GAT construct; assay: Glyphosate selection of infected embryos; type: cell-based, maize; conditions: 1.0 mM or 2.0 mM glyphosate in medium; about 40 days culture
Procedure: as §1

[9] = test system: Heterozygous GAT-HRA corn; assay: Postemergence herbicide application to potted corn (fresh weight, visual injury); type: in vivo; conditions: 3472 g ae/ha
[10] = test system: Wild Type soybeans (Jack); assay: Postemergence herbicide test on soybeans, % visual injury; type: in vivo, soybean; conditions: non-transgenic control soybeans; 35 g/ha
Procedure: (§4) Four replications were performed for each treatment.
(§5) When possible, containers were thinned to two uniform plants.

GAT-HRA soybeans = assay: as above; type: in vivo, soybean; conditions: 35 g/ha
Procedure: as §4, §5

lead GAT7 soybean events = assay: Field efficacy experiment JHM5G030, visual rating 7 and 14 days after treatment; type: in vivo; conditions: 7 DAS and 14 DAS; rimsulfuron 8.75 and 35.0 g/ha ai; Synchrony 35.03 and 140.11 g/ha ai; tribenuron 8.75 and 35.0 g/ha ai
Procedure: GAT round 7 (GAT7) transgenic events from construct PHP20163A were evaluated in 2004 for herbicide efficacy (JHM464TGATEFF) and yield potential (JHD4_GAT7 tests). […] 92M90 was selected as a STS variety to compare directly with the SAMS:ALS construct in the GAT7 events. Variety Jack was utilized as an untransformed negative control.
Selected lines were grown in experiment JHM5G030 in two replications of paired twelve foot rows, with eleven different treatments applied. Lines were blocked by event and treatment to provide side-by-side comparison of the eleven different spray treatments, with a 2 row border between each treatment to catch any spray drift. […] Lines were given a 100 (complete susceptibility, 100% damage) to 0 (complete tolerance, 0% damage) visual rating at 7 days after treatment and again at 14 days after treatment. Visual ratings were based upon overall degree of chlorosis, necrosis, and plant stunting (if evident) in the treated rows compared to the respective unsprayed control rows. Rating data at 7 and 14 days after spraying were subject to ANOVA and mean separation using SAS.

[11] = test system: Soybeans comprising the lead GAT7 event and also having HRA; assay: Greenhouse test confirming the field trial (Example 6B); type: in vivo, soybean; conditions: GAT/HRA Soybeans
From the text: Example 6B provides greenhouse data that confirms the field trial data provided above in Example 6A. Soybeans comprising the lead GAT7 event and also having HRA were used in the studies.

SMILES | callus initiation ([1]; 0.5 mM glyphosate in medium) | callus growth ([1]; 1.0 and 2.0 mM glyphosate in medium) | plants killed [2] | plants that eventually died [3] | control [4] | transgenic plants with no deleterious symptoms [5] | state of plants after application ([6]; 1.5 lb acid equivalent per acre, 4-6 leaf stage, 2 weeks after application) | Fresh Weight ([7]; weighed 2 weeks after treatment, untreated 76.4 g) | % visual injury to corn at 3472 g/ha ([7]; Zea mays, post-emergence) | resistant callus initiation [8] | Fresh Weight ([9]; weighed 2 weeks after treatment, untreated 98.8 g) | Visual crop injury (%) at 3472 g/ha ([9]; Zea mays, post-emergence) | damage [10] | damage (GAT-HRA soybeans) | spray damage of the 4 GAT events compared to Jack and STS (lead GAT7 soybean events) | damage from the application ([6]; 16 g active ingredient/hectare, in the absence of glyphosate) | % Growth Reduction ([11]; Rimsulfuron 35 + Imazethapyr 0 g ai/ha, Treatment # 6) | % Growth Reduction ([11]; Rimsulfuron 70 + Imazethapyr 0 g ai/ha, Treatment # 11)
O=C(O)CNCP(=O)(O)O [Glyphosate, N-phosphonomethylglycine] | about half of the embryos | very little callus growth | 1 out of 16 plants (12%) | 15 of the 16 plants (12%) | 34% | approximately 50% | dead | 1.0 g | 100% | some embryos initiated resistant callus | 97.4 g | 10% | – | – | – | – | – | –
COC(=O)c1ccccc1S(=O)(=O)NC(=O)N(C)c1nc(C)nc(OC)n1 [Tribenuron-methyl, methyl 2-[[[[N-(4-methoxy-6-methyl-1,3,5-triazin-2-yl)-N-methylamino]carbonyl]-amino]sulfonyl]benzoate] | – | – | – | – | – | – | – | – | – | – | – | – | killed | no significant damage | significantly less visual damage compared to STS and Jack | – | – | –
CCS(=O)(=O)c1cccnc1S(=O)(=O)NC(=O)Nc1nc(OC)cc(OC)n1 [Rimsulfuron, N-[[(4,6-dimethoxy-2-pyrimidinyl)amino]carbonyl]-3-(ethylsulfonyl)-2-pyridinesulfonamide] | – | – | – | – | – | – | – | – | – | – | – | – | – | – | significantly less spray damage compared to Jack and STS | severe damage | 67% | 73%

— patent US7973218B2, “Methods and compositions for controlling weeds” (Pioneer Hi-Bred International, Inc., priority 2005, dated 2011)
